Reference: publication PMC2885673, “Interaction of triosephosphate isomerase from the cell surface of Staphylococcus aureus and α-(1→3)-mannooligosaccharides derived from glucuronoxylomannan of Cryptococcus neoformans” (Microbiology, 2009)

Tests used:
[1] = target: T1, triosephosphate isomerase (TPI) from S. aureus (Staphylococcus aureus, UniProt Q2G030); assay: SPR (Biacore […]), TPI immobilized, heterogeneous ligand-parallel reaction fit; assay type: binding; settings: HBS-EP pH 7.4, 150 mM NaCl, 3 mM EDTA; second site of a two-site fit (stronger site)
T1 construct: gene tpiA; native, purified from LiCl surface protein extract; 253 amino acids (homology model); amine-coupled to CM5 chip for SPR
T1 sequence (Q2G030 whole entry): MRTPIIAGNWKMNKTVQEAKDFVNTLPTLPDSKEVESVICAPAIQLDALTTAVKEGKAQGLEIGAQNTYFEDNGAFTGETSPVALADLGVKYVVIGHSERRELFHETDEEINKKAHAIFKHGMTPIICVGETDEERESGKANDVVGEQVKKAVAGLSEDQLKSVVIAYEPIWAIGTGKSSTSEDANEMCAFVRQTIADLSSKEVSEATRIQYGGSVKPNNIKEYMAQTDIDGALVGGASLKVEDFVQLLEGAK

[2] = target: T1, triosephosphate isomerase (TPI) from S. aureus; assay: coupled NADH / glycerol-3-phosphate dehydrogenase assay, A340; assay type: biochemical; settings: 0.45 mM DL-glyceraldehyde 3-phosphate; S. aureus surface protein extract per the assay description

Structure (SMILES) | Heterogeneous ligand-parallel reaction / Kd2 [1] [µM] | inhibition of TPI activity at 100 μM [2]
OC[C@H]1O[C@H](O[C@H]2[C@H](O)[C@@H](CO)OC(O)[C@H]2O)[C@@H](O)[C@@H](O)[C@@H]1O (stereo partly shown) [M2, mannobiose] | 5.37 | 
OC[C@H]1O[C@H](O[C@@H]2[C@H](O)[C@@H](O[C@H]3[C@H](O)[C@@H](CO)OC(O)[C@H]3O)O[C@H](CO)[C@H]2O)[C@@H](O)[C@@H](O)[C@@H]1O (stereo partly shown) [M3, mannotriose] | 124 | dose-dependent inhibition was observed with mannotriose, mannotetraose and mannopentaose
OC[C@H]1O[C@H](O[C@@H]2[C@H](O)[C@@H](O[C@@H]3[C@H](O)[C@@H](O[C@H]4[C@H](O)[C@@H](CO)OC(O)[C@H]4O)O[C@H](CO)[C@H]3O)O[C@H](CO)[C@H]2O)[C@@H](O)[C@@H](O)[C@@H]1O (stereo partly shown) [M4, mannotetraose] | 0.0146 | dose-dependent inhibition was observed with mannotriose, mannotetraose and mannopentaose
OC[C@H]1O[C@H](O[C@@H]2[C@H](O)[C@@H](O[C@@H]3[C@H](O)[C@@H](O[C@@H]4[C@H](O)[C@@H](O[C@H]5[C@H](O)[C@@H](CO)OC(O)[C@H]5O)O[C@H](CO)[C@H]4O)O[C@H](CO)[C@H]3O)O[C@H](CO)[C@H]2O)[C@@H](O)[C@@H](O)[C@@H]1O (stereo partly shown) [M5, mannopentaose] | 18.6 | dose-dependent inhibition was observed with mannotriose, mannotetraose and mannopentaose
